Test [1] has as its target T1, hMagT1 (human MagT1) (Homo sapiens, UniProt Q9H0U3).
T1 construct: full-length ORF, 335 residues, 38,036 Da; subcloned in pEYFP-N1, cRNA injected in Xenopus laevis oocytes; no fusion tag stated
T1 sequence (Q9H0U3 30-335): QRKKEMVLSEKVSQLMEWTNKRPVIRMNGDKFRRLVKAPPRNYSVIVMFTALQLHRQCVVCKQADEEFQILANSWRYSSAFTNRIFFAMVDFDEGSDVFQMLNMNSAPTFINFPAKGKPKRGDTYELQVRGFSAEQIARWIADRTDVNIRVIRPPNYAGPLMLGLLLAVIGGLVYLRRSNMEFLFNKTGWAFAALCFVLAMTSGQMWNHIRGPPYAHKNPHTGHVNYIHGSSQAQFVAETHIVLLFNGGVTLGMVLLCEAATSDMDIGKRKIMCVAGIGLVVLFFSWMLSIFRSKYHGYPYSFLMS
The experiment in a line: two-microelectrode voltage clamp, Xenopus oocytes, Mg2+-evoked current. Type of test: cell-based. The settings on record: 10 μM compound, -125 mV, n = 5; activator; control current 0.59 ± 0.09 μA.

For test [2], the target named is T1, hMagT1 (human MagT1). The test is described as above. Type of test: cell-based. The settings on record: 10 μM compound, -125 mV, n = 7; inhibitor; control current 0.59 ± 0.09 μA.

For `COC(=O)C1=C(C)NC(C)=C([N+](=O)[O-])C1c1ccccc1C(F)(F)F` (centres unmarked) [BAY K8644], the “current at 10 μM” value in test [1] was 0.80 ± 0.18 μA.

For the compound `CCOC(=O)C1=C(C)NC(C)=C(C(=O)OC)C1c1cccc([N+](=O)[O-])c1` (centres unmarked) [nitrendipine], the “residual current at 10 μM” value in test [2] was determined as 0.15 ± 0.02 μA.

Source of the values: PMC1129089, “Identification and characterization of a novel mammalian Mg^2+ transporter with channel-like properties” (BMC Genomics, 2005).
